From patent US12258571B2, “Methods and compositions for inducible expression of neurotrophic factors” (CEDARS-SINAI MEDICAL CENTER, priority 2018, dated 2025)
Values joined by “and” are separate entries in the source; they are usually repeats but may differ in a detail not shown here. Identical values can stand only once.

Key:
TRE-Bi promoter [1] = assay: Dual-luciferase assay in nucleofected iNPCs; format: cell-based, human; details: 24-hour dox treatment; iNPCs nucleofected with pB-RTP-Tet-GDNF/memClover-FLuc, pBase and Ef1-Renilla
Method: In all experiments, dox solution was maintained in light protection and 4° C. For cell culture, dox (Clontech 631311) was added to culture media at 100 ng/ml. For in vivo work, animals were administered dox (15 μg dox/g weight) every 3-4 days by oral gavage (e.g. 60 μl for a 20 g animal), using a soft-tipped feeding needle (Instech FTP-20-30; Plymouth Meeting, PA) attached to a 1 ml syringe (BD 309659; Franklin Lakes, NJ). To quantitatively assess reporter expression from the TRE-Bi promoter, iNPCs were nucleofected as above, along with an Ef1-Renilla plasmid that constitutively expresses Renilla luciferase for protein normalization. […] To assess the kinetics of the TRE-Bi inducible promoter, firefly luciferase activity was quantified in a live culture of the nucleofected iNPCs grown in the presence of beetle luciferin (FIG. 1F). […] As a clinically-relevant cell product would need to be expanded and banked, the Inventors assessed if the TRE-Bi promoter would remain functionally responsive with an extensive cell expansion and freeze.

TRE-Bi promoter [2] = assay: Flow analysis of GFP induction after extensive cell expansion and freeze; format: cell-based, human; details: 24 hours after adding dox; cells 6 months in culture after nucleofection, two freeze/thaw cycles
Method: FIG. 5. IPSC-derived NPCs nucleofected with pB-RTP-Tet-GDNF/memClover-FLuc retain their ability to be induced upon the addition of dox. 83% of BF^+ cells were also GFP^+ (P5 Gate) 24 hours after adding dox to cells that were grown in culture for 6 months after nucleofection. Note: Cells were also exposed to two freeze/thaw cycles and were frozen for a total of 10 months during this period.
To quantitatively assess reporter expression from the TRE-Bi promoter, iNPCs were nucleofected as above, along with an Ef1-Renilla plasmid that constitutively expresses Renilla luciferase for protein normalization. […] To assess the kinetics of the TRE-Bi inducible promoter, firefly luciferase activity was quantified in a live culture of the nucleofected iNPCs grown in the presence of beetle luciferin (FIG. 1F). […] As a clinically-relevant cell product would need to be expanded and banked, the Inventors assessed if the TRE-Bi promoter would remain functionally responsive with an extensive cell expansion and freeze.

GDNF = assay: Blinded postmortem GDNF scoring (DAB stain) of transplanted tissue; format: in vivo, NOD-SCID mice; parameters: key: (−) no positive staining; (+) slight staining; (++) moderate staining; (+++) extensive staining; details: one line per animal; for GDNF Str/CC: striatum/corpus callosum
Method: In all experiments, dox solution was maintained in light protection and 4° C. For cell culture, dox (Clontech 631311) was added to culture media at 100 ng/ml. For in vivo work, animals were administered dox (15 μg dox/g weight) every 3-4 days by oral gavage (e.g. 60 μl for a 20 g animal), using a soft-tipped feeding needle (Instech FTP-20-30; Plymouth Meeting, PA) attached to a 1 ml syringe (BD 309659; Franklin Lakes, NJ). Nucleofected iNPCs, which underwent two rounds of FACS for BFP, were transplanted into the striatum (41 of cells at 100,000 cells/μ1 into each hemisphere) of 6-month old NOD-SCID mice (Nod.cb17-Prkdc^scid/J, Jackson Lab #1303; Bar Harbor, ME). Three days before transplantation, a subset of cells was treated with dox. For transplantation, cells were dissociated and diluted to a final concentration of 100,000 cells/μl in conditioned media, and maintained on ice. Animals were anesthetized with isoflurane and placed in a stereotaxic frame. Cells were injected bilaterally relative to bregma at 0.7 mm rostral and +/−2.0 mm lateral. A 5 μl Hamilton microsyringe backfilled with PBS was loaded with 2 μl of cell solution and inserted to a depth of −4.00 mm. The microsyringe was then raised to −3.50 mm and the cell solution was injected at 1 μl/min. After cell injection, the microsyringe was raised to −3.00 mm, held for 2 minutes and slowly withdrawn. Animals were checked daily. Immunostained sections were photographed using a Leica DM200 LED microscope. Images were scored based on stain intensity of DAB GDNF stain by an observer blinded to the experiment conditions (dox vs no dox). Finally, DAB staining, which provides a high sensitivity of protein detection and has effectively tracked human GDNF-expressing NPC transplants, was used to determine the levels and location of GDNF expression.

[3] = animals that ended trial OFF dox (dox withdrawn)
[4] = animals that ended trial ON dox

C[C@H]1c2cccc(O)c2C(=O)C2=C(O)[C@]3(O)C(=O)C(C(N)=O)=C(O)[C@@H](N(C)C)[C@@H]3[C@@H](O)[C@@H]21 [dox, doxycycline]
increase in firefly luciferase activity (normalized to Renilla) (TRE-Bi promoter [1]): ~1300 fold | BFP+ cells induced to express GFP (TRE-Bi promoter [2]): 83% | GDNF Meninges (GDNF; [3]): − | GDNF Str/CC (GDNF; [3]): − | GDNF Meninges (GDNF; [4]): +++ and − (3×) and + (2×) and ++ | GDNF Str/CC (GDNF; [4]): − (3×) and ++ (3×) and +
